# Assay results published in patent US20240199676A1, “ANTIVIRAL COMPOUNDS AND METHODS OF MAKING AND USING THE SAME” (Gilead Sciences, Inc., priority 2022, published 2024).
# System: Respiratory syncytial virus recombinant with luciferase (RSV-Luc5) in HEp-2 cells
# Assay: HEp-2 RSV-Luc5 384-well Assay (EC50 RSVFLUC Hep2-384, Ex. R)
# Assay type: cell-based
# Details: human respiratory syncytial virus, HEp-2, 72 h, read-out: RSV Hep-2 FLuc EC50 (per Ex. R)
# From the text: Example R. HEp-2 RSV-Luc5 384-well Assay (EC50 RSVFLUC Hep2-384)
# HEp-2 cell line was purchased from ATCC (Manassas, VA Cat #CCL-23) and maintained in Dulbecco's […] (DMEM) (Corning, New York, NY, Cat #15-018CM) supplemented with 10% fetal bovine serum (FBS) (Hyclone, Logan, UT, Cat #SH30071-03) and 1× Penicillin-Streptonycin-L-Glutamine (Corning, New York, NY, Cat #30-009-CI). Cells were passaged 2 times per week to maintain sub-confluent densities and were used for experiments at passage 5-20. Respiratory syncytial virus recombinant with luciferase (RSV-Luc5) direct pelleted virus (≥1×107 TCID50/ml) was purchased from Microbiologics (Saint Cloud, MN). Viral replication was determined in HEp-2 cells in the following manner.
# Compounds are prepared in 384-well polypropylene plates (Greiner, Monroe, NC, Cat#784201) with 8 compounds per plate in grouped replicates of 4 at 10 serially diluted concentrations (1:3).
# HEp-2 cells were suspended in DMEM (supplemented with 10% FBS and 1× Penicillin-Streptomycin-L-Glutanine) and 60 uL of 4,000 cells per well were seeded into 384-well plates (Greiner, Monroe, NC, Cat #781080) using Biotek MultiFlo dispenser. […] Viral replication was then assessed by measuring luminescence signal using and Envision plate reader. […]
smiles,measurement,value
"CC(C)C(=O)OC[C@@]1(C#N)O[C@@H](c2ccc3c(N)ncnn23)[C@H](O)[C@@H]1O [Compound 1, ((2R,3S,4R,5S)-5-(4-aminopyrrolo[2,1-f][1,2,4]triazin-7-yl)-2-cyano-3,4-dihydroxytetrahydrofuran-2-yl)methyl isobutyrate]",EC50,10.4 µM
